Source: patent publication US20030022250A1, “Functional IgE test methods and compositions” (priority 2001, published 2003)

Tested on: RBL SX-38 cells
Test: [3H]5-HT release (degranulation) from labeled and sensitized RBL SX-38 cells
Type: cell-based, rat
Conditions: pre-incubation 5 minutes at 37 C; 0.1 mM NECA, 30% D2O or 5 μg/ml cytochalasin B
Procedure: As specifically exemplified herein, we have labeled RBL SX-38 cells with ^3H-serotonin (5HT). A fraction of the tritiated 5-HT incorporated into cellular granules is released from the cells (in the process of degranulation) following their activation. The percentage of labeled 5-HT release, where the label is a radioactive moiety, is calculated as follows: disintegrations per minute (dpm) in the supernatant divided by the sum of the dpm in the supernatant plus the dpm in the residual cells. This formula is as follows:
% release =100×(dpm in the supematant)/(dpm in the supernatant+dpm in the residual cells).
For each experiment, a positive control, activation of the cells with anti-IgE is determined. The % release with anti-IgE (usually about 30-60% of the total 5-HT) is set at 100%. Degranulation with a given allergen is then expressed as a percent of that seen with anti-IgE. […]
Triggering is initiated by adding 5 μl of allergenic extracts (diluted to the appropriate concentration) or goat anti-human-IgE (3 μg/ml). […] Non-specific background release is assessed using negative controls, which have 5 μl PIPES buffer added instead of extract or anti-IgE. After 45 minutes, the plates are then removed and the tritium content of a 50 μl aliquot from the supernatant of each sample, in 5 ml of scintillation fluid, is determined. […]

## CCNC(=O)[C@H]1O[C@@H](n2cnc3c(N)ncnc32)[C@H](O)[C@@H]1O [NECA, N-ethylcarboxamido adenosine]
  effect on threshold for triggering by allergen: lowers the threshold for triggering
